Laboratory results published in patent publication US20020082273A1, “Agents for use in the treatment of alzheimer's disease” (priority 1998, published 2002).
Counter-ions that a name gives are not always drawn.

Tests used:
Aβ1-42 = Aβ1-42 (Homo sapiens, UniProt P05067); assay: Effect of metal chelators on H2O2 production from Aβ1-42; type: biochemical; settings: 1 μM Cu^2+; chelator 200 μM
Aβ = assay: Effect of agents on Cu^2+-induced SDS-resistant Aβ polymerization; type: biochemical, human
Protocol: Cu^2+-induced SDS-resistant oligomerization of Aβ: Aβ (2.5 μM), 150 mM NaCl, 20 mM hepes (pH 6.6, 7.4, 9) with or without ZnCl2 or CuCl2. Following incubation (37° C.), aliquots of each reaction (2 ng peptide) were collected at 0 d, 1 d, 3 d and 5 d and western blotted using anti-Aβ monoclonal antibody 8E10 (FIG. 9). Migration of the molecular size markers are indicated (kDa). […] Cu^2+ (2-30 μM) induced SDS-resistant polymerization of peptide. […] It should be noted that other means of visualizing and/or determining the presence or absence of polymerization other than western blot analysis may be used. Such other means include but are not limited to density sedimentation by centrifugation of the samples.
It is possible that the decreased polymerization may be due to chelation of Cu^2+ by BC, however given the low binding affinity of BC for Cu^2+ compared with Aβ, it seems likely that the chelation of Cu^+ by BC prevents it from inducing SDS-resistant Ad polymerization. Therefore, Aβ may undergo a hydroxyl radical modification that promotes its assembly into SDS-resistant polymers.

[1] = molecular target: T1, Aβ1-40 or Aβ1-42 SDS-resistant polymers (Homo sapiens, UniProt P05067); assay: Dissolution of in vitro Cu^2+-induced SDS-resistant Aβ polymers; type: biochemical
T1 construct: purchased W. Keck Laboratory, Yale; host or cells: chemical synthesis

[2] = Metal reduction assay, Fe^3+ to Fe^2+; type: biochemical; settings: 10 μM Fe^3+, PBS pH 7.4, 1 hr 37° C.
Protocol: (§1) The metal reduction assay was performed using a 96-well microtiter plate (Costar) based upon a modification of established protocols (Landers, J. W., et al., Amer. Clin. Path. 29:590 (1958); Landers, J. W., et al., Clinica Chimica Acta 3:329 (1958)). Polypeptides (10 μM) or Vitamin C (100 μM), metal ions (10 μM, Fe(NO3)3 or Cu(NO3)2), and reduced metal ion indicators, bathophenanthrolinedisulfonic acid (BP, for Fe^2+, Sigma, 200 μM) or bathocuproinedisulfonic acid (BC, for Cu^+, Sigma, 200 μM), were coincubated in phosphate buffered saline (PBS), pH 7.4, for 1 hr at 37° C. The metal ion solutions were prepared by direct dilution in the buffer from their aqueous stocks purchased from National Institute of Standards and Technology (NIST). Absorbances were then measured at 536 mn (Fe^2+-BP complex) and 483 nm (Cu^+-BC complex), respectively, using a 96-well plate reader (SPECTRAmax 250, Molecular Devices, CA). In control samples, both metal ion and indicator were present to determine the background buffer signal. As a further control, both metal ion and peptide were present in the absence of indicator to estimate the contribution of light scattering due to turbidity to the absorbance reading at these wavelengths. The net absorbances (ΔA) at 536 nm or 483 nm were obtained by deducting the absorbances from these controls from the absorbances generated by the peptide and metal in the presence of the respective indicator.
The concentrations of reduced metal ions (Fe^2+ or Cu^+) were quantified based on the formula: Fe^2+ or Cu^+ (˜M)=A*10^6/(L*M), where L is the measured equivalent vertical pathlength for a well of 300 μL volume as described in the instrument's specifications manual (0.856 cm for Fe^2+; 1.049 cm for Cu^+); M is the known molecular absorbance (M^−1 cm^−1) which is 7124 (for Fe^2+-BP complex) or 2762 (for Cu^+-BC complex).

[3] = Metal reduction assay, Cu^2+ to Cu^+; type: biochemical
Protocol: Aβ (10 μM in PBS, pH 7.4 or 6.8, as shown) was incubated for 30 minutes (37° C.) in the presence of Cu^2+10 μM ±Zn^2+ 10 μM). […] levels (n=3, ±SD) were assayed against a standard curve.
as §1, with “Polypeptides” for “The metal reduction assay was performed using a 96-well microtiter plate (Costar) based upon a modification of established protocols (Landers, J. W., et al., Amer. Clin. Path. 29:590 (1958); Landers, J. W., et al., Clinica Chimica Acta 3:329 (1958)). Polypeptides”, “Absorbances were then measured at 536 mn (Fe^2+-BP complex) and 483 nm (Cu^+-BC complex), respectively, using a 96-well plate reader (SPECTRAmax 250, Molecular Devices, CA).” left out

T1 sequence (P05067 672-713, change not shown): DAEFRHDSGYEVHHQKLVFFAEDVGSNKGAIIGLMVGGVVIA
Aβ1-42, sequence (P05067 672-713 limits assumed): as the sequence (P05067 672-713, change not shown) above

Compound	effect on Cu^2+-induced SDS-resistant Aβ polymerization (Aβ)	disruption of SDS-resistant polymers ([1]; 4.5 M)	disruption of SDS-resistant polymers ([1]; 9M)	also measured
O=S(=O)(O)c1ccc(-c2ccnc3c2ccc2c(-c4ccc(S(=O)(=O)O)cc4)ccnc23)cc1 [BP, bathophenanthrolinedisulfonic acid]	–	–	–	effect on H2O2 formation by Aβ1-42 (Aβ1-42): inhibited H2O2 formation
Cl.O=C(O)CCP(CCC(=O)O)CCC(=O)O [TCEP, Tris(2-Carboxyethyl)-Phosphine Hydrochloride]	significantly reduced the level of polymerization	–	–	–
NC(N)=O [Urea, urea]	–	did not disrupt	only slightly	–
N=C(N)N [guanidine HCl]	–	did not disrupt	only slightly	–
O=S([O-])S(=O)(=O)[O-].[Na+].[Na+] [sodium metabisulfite]	moderately attenuates	–	–	–
insulin: histidine-containing peptide that can bind copper and zinc	–	–	–	reduction of available Fe^3+ [2]: did not significantly facilitate the reduction of Fe^3+; reduction of available Cu^2+ ([3]; 10 μM Cu^2+, PBS pH 7.4, 1 hr 37° C.): 10%; Cu^2+ reduction ([3]; 10 μM, PBS, 30 minutes 37° C., Cu^2+ 10 μM): no Cu^2+ reduction
